Reference: patent US20260069606A1, “Oxidative Stress and Diabetes Treatment with Cobinamide” (The Regents of the University of California, priority 2022, published 2026)

Key:
[1] = tested on: H9c2 rat embryonal cardiomyocytes; experiment: Mitochondrial superoxide content, MitoSOX Red fluorescence; assay type: cell-based
Experimental: FIGS. 3A-3H. […] FIGS. 3A-3B. […] FIG. 3A. […] FIG. 3B. […] FIGS. 3C-3D. […] FIG. 3D. […] FIGS. 3E-3F. […] FIG. 3E. Representative blots are shown. […] FIG. 3F. […] FIG. 3G. […] FIG. 3H.
H9c2 cells were plated on glass cover slips in 24 well dishes, and 16 h later the medium was changed to phenol red-free DMEM supplemented with 20 mM Hepes, 0.1% fetal bovine serum, and 0.5% bovine serum albumin. […] MitoSOX Red is a dihydroethidium derivative containing triphenyl-phosphonium, which localizes it to respiring mitochondria. Its reaction with O2·^− yields 2-hydroxy-mitoethidium (2-OH-Mito-E″), whereas its reaction with other oxidative species yields mitoethidium (Mito-E^+)^67. These two oxidative derivatives have overlapping fluorescence spectra, but they can be distinguished by high performance liquid chromatography (HPLC)^68. Rotenone increased 2-OH-Mito-E^+ about two-fold, without increasing Mito-E^+. Thus, any increased fluorescence observed on treating cells with rotenone could be ascribed to an increase in 2-OH-Mito-E^+, and decreased fluorescence by an anti-oxidant in rotenone-treated cells was likely from a decrease in 2-OH-Mito-E^+.
The cells were then washed once with PBS, placed back in the DMEM experimental medium, and incubated with the indicated drugs for 30 min. At the end of the incubation period, nuclei of both the MitoSOX Red- and JC-1-treated cells were stained with […] 4′,6-diamidino-2-phenyl-indole (DAPI) for 3 min, washed once with PBS, and returned to the DMEM experimental medium. The cover slips were removed from the wells, mounted in the DMEM experimental medium, and red (MitoSOX Red and JC-1 aggregates), green (JC-1 monomers), and blue (DAPI) fluorescence intensity was assessed using a Keyence BZ-X700 fluorescence microscope at the following paired excitation/emission wavelengths, respectively: 560/630, 490/525, and 360/460 nm.
To assess if cobinamide reduces oxidative stress in cells and to compare its […] efficacy to that of cobalamin, imisopasem, and MnTBAP, several sets of experiments were performed. First, whether cobinamide reduces mitochondrial-generated O2·^− was evaluated using the fluorescent probe MitoSOX Red. H9c2 rat embryonal cardiomyocytes were treated with rotenone, an inhibitor of complex I, to increase mitochondrial O2·^−. […] Monitoring the UV-visible spectrum of cobinamide is a sensitive means to assess ligand binding^38.

[2] = tested on: streptozotocin diabetic mice; experiment: Fasting blood glucose and intraperitoneal glucose tolerance test; assay type: in vivo; conditions: fasting blood glucose and IPGTT after three months
From the text: The water was replenished twice a week.
Over the three-month treatment period, the non-diabetic mice gained an average of 4.1±0.8 g. while the diabetic mice lost an average of 0.3 g, with wide variation in weight change among the latter mice.

hearts of diabetic mice = experiment: Lipid and protein oxidation and DNA damage in hearts of diabetic mice; assay type: in vivo
Experimental: FIGS. 4A-4K. Cobinamide Rescues Flies from Paraquat Poisoning and Prevents Abnormal Lipid and Protein Oxidation, DNA Damage, and Fibrosis in the Hearts of Diabetic Mice. FIG. 4A. At time zero, 10 fruit flies (D. melanogaster) were transferred to vials with food to which either phosphate-buffered saline (PBS), 0.8 mM of the indicated drugs, 20 mM paraquat (PQ), or 20 mM paraquat with 0.8 mM of the indicated drugs had been added. The number of live flies was counted each day for 7 d. The experiment was repeated seven times, for a total of 70 flies per condition. The percent surviving flies was calculated; error bars represent standard deviations and are shown in one direction only for sake of clarity. FIGS. 4B-4K. […] The amount of 8-isoprostane (FIG. 4B) was measured by ELISA, protein oxidation (FIGS. 4C-4D) was assessed by immunoblotting, and nitrotyrosine content (FIGS. 4E-4F) was assessed by immunohistochemistry. DNA damage was assessed by 8-OH-deoxyguanosine staining (FIGS. 4G-4H) and a long amplicon qPCR-based assay (FIG. 4I). Cardiac fibrosis (FIGS. 4J-4K) was assessed by Mallory trichrome staining, which stains collagen blue. […] For Panels C, D, and I, frozen heart samples were selected randomly from each of the four groups and were analyzed. For Panel D, blots were analyzed by densitometric scanning using Li-Cor Odyssey software, with the density of each lane normalized to the actin band. […]

[3] = mouse, in vivo
Experimental: It seemed possible, therefore, that the cobinamide administered to the mice could have increased their blood pressure, since ·NO is a potent vasodilator. Because diabetes can increase blood pressure, these studies were performed on a parallel set of non-diabetic mice of the same strain and sex and using the same concentration of histidyl-cobinamide in the drinking water as in the above-described studies.

[4] = Plasma cobinamide concentration in mice given cobinamide in drinking water; conditions: discussion summary
Experimental: Male C57BL/6NHsd mice (20 weeks old) were housed three to four animals per cage in a temperature-controlled environment with a 12-h light/dark cycle and fed standard rodent chow with ad libitum access to food and water. After one week of acclimatization, mice weighing 30±3 g were injected intraperitoneally for five consecutive days with either saline (n=20) or 50 mg/kg streptozotocin (n=20) 69. […] The 16 diabetic mice and a corresponding number of the saline-injected, non-diabetic mice were split randomly in half to receive either plain drinking water or histidyl-cobinamide in the drinking water. The four groups of animals are referred to as: diabetic vehicle (D-Veh); diabetic, cobinamide-treated (D-Cbi); non-diabetic, vehicle (ND-Veh); and non-diabetic, cobinamide-treated (ND-Cbi). The histidyl-cobinamide concentration was 1 mM for the ND-Cbi mice, but because the diabetic mice drank more than the non-diabetic mice, the cobinamide concentration for the D-Cbi mice was decreased accordingly. The water was replenished twice a week.
After three months of treatment, the mice were weighed, fasted for 6 h, and then underwent an intraperitoneal glucose tolerance test (IPGTT) using 2 g/kg of a 20% glucose solution. Blood glucose concentrations were measured just before the glucose injection (time 0, fasting specimen) and at 15, 30, 60, and 120 min following the injection. […] Two days later, the mice were euthanized by inducing deep anesthesia with 200 mg/kg ketamine and 40 mg/kg xylazine administered by intraperitoneal injection, followed by exsanguination via an open cardiac puncture.
Type I diabetic mice were generated using streptozotocin, and then provided cobinamide in the drinking water for three months.

C/C1=C2/[N-][C@H]([C@H](CC(N)=O)[C@@]2(C)CCC(=O)NC[C@@H](C)O)[C@]2(C)N=C(/C(C)=C3N=C(/C=C4N=C1[C@@H](CCC(N)=O)C\4(C)C)[C@@H](CCC(N)=O)[C@]\3(C)CC(N)=O)[C@@H](CCC(N)=O)[C@]2(C)CC(N)=O.[Co+3] [cobinamide, aquohydroxo-cobinamide]
MitoSOX red fluorescence in rotenone-treated cells ([1]; H9c2, 5 μM rotenone 30 min, drugs at 2.5 μM): markedly reduced fluorescence | MitoSOX red fluorescence, drug alone ([1]; H9c2, vehicle-treated cells without rotenone, 2.5 μM): no change | Glucose intolerance versus mice not receiving drug [2]: same degree of glucose intolerance | All markers of oxidative stress and DNA damage in hearts of diabetic mice (hearts of diabetic mice; 8-isoprostane, protein carbonylation, nitrotyrosine, 8-OH-deoxyguanosine, long-amplicon PCR, three months histidyl-cobinamide in drinking water): significantly reduced all markers of oxidative stress and DNA damage to values similar to those found in the non-diabetic mice | Tyrosine nitration in hearts of diabetic mice (hearts of diabetic mice; nitrotyrosine immunohistochemistry): reduced | Blood pressure [3]: no change in blood pressure | Concentration in the plasma of mice that received cobinamide in drinking water [4]: 100 to 500 nM
